In ChEMBL document CHEMBL1240330, “Splicing factor SF3b as a target of the antitumor natural product pladienolide” (Nat Chem Biol, 2007):

How the values were obtained:
[1] = molecular target: T1, Splicing factor 3B subunit 3 (Homo sapiens) (UniProt Q15393); experiment: Displacement of [3H]probe from SAP130 in human WiDr cell immunoprecipitate sample assessed as radioactive intensity at 10 uM after 1 hr by scintillation counting
T1 sequence (whole entry): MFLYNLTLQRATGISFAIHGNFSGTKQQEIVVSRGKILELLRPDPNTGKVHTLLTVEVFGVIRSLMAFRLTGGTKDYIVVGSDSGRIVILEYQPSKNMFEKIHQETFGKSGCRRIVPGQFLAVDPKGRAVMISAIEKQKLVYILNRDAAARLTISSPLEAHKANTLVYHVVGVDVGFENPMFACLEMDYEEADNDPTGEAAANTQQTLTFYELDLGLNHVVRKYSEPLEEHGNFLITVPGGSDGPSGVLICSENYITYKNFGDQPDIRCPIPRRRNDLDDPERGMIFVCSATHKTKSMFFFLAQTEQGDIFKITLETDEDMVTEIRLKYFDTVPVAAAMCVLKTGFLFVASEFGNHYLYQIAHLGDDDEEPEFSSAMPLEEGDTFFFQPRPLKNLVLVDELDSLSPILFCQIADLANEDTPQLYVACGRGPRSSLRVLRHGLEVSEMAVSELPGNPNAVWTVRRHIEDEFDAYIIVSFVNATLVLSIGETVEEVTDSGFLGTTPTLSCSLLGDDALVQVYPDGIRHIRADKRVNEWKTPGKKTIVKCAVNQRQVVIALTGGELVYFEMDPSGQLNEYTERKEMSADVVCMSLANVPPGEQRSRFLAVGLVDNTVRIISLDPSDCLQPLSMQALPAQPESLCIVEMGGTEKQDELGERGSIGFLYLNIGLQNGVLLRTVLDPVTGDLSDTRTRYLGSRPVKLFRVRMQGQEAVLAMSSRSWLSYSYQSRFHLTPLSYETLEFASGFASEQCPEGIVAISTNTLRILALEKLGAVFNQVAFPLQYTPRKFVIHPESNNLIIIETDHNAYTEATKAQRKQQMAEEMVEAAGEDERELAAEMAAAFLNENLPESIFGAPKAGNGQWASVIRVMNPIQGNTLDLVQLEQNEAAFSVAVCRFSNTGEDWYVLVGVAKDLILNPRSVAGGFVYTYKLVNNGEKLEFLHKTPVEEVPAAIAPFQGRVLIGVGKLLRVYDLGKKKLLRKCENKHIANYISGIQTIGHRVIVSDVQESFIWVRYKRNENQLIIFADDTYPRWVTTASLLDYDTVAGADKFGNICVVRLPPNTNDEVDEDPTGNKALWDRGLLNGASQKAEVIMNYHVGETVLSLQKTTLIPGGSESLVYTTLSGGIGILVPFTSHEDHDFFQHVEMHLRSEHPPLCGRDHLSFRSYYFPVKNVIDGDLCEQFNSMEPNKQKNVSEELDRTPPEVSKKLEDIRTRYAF

[2] = molecular target: Splicing factor 3B subunit 1 / PHD finger-like domain-containing protein 5A (Homo sapiens, UniProt O75533+Q7RTV0); experiment: (§1) Inhibition of SAP130 in VEGF-stimulated human U251 cells by PLAP reporter gene assay; type: cell-based, U-251; conditions: u-251
[3] = molecular target: T2, Splicing factor 3B subunit 3 (Homo sapiens, UniProt Q15393); experiment: as §1; type: cell-based, U-251
T2 sequence (Q15393 whole entry): T1 sequence (whole entry)

Chain of Splicing factor 3B subunit 1 / PHD finger-like domain-containing protein 5A (O75533 whole entry, the tested form may be a part): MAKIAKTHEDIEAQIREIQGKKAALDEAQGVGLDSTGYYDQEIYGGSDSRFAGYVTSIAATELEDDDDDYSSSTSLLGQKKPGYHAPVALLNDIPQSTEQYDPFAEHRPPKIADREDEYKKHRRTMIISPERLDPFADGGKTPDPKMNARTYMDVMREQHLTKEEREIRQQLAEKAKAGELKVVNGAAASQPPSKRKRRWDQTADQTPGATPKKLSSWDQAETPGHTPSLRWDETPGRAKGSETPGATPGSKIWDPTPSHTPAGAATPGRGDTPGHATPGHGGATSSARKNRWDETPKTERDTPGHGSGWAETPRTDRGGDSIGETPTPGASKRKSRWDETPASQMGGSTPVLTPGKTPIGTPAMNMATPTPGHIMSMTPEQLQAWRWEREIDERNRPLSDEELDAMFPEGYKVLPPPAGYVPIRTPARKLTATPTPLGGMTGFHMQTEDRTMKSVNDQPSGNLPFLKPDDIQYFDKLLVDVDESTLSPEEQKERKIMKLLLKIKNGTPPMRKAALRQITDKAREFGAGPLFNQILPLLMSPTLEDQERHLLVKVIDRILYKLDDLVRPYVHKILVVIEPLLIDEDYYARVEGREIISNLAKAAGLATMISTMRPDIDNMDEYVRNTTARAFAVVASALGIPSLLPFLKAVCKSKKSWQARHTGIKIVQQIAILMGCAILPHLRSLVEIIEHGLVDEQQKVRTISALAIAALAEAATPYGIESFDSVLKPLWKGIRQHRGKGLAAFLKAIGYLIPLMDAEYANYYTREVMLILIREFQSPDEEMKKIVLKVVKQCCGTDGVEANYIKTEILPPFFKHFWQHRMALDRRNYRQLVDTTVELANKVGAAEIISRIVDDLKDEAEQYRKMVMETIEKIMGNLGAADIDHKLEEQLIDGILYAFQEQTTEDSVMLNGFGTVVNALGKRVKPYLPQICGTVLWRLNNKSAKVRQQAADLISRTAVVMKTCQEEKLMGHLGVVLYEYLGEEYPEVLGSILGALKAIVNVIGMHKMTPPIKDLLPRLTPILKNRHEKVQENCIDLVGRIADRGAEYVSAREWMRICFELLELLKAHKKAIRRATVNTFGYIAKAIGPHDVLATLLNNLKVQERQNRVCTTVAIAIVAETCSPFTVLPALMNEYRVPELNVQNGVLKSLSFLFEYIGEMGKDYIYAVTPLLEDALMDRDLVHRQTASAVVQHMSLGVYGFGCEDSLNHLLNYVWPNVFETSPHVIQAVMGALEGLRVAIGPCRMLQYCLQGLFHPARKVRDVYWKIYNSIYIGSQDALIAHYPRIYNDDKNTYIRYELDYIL
Chain of Splicing factor 3B subunit 1 / PHD finger-like domain-containing protein 5A (Q7RTV0 2-110 limits assumed): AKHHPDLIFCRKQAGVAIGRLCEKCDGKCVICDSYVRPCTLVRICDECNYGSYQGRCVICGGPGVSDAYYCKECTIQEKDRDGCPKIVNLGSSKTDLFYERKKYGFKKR

Row | Structure (SMILES) | Activity [1] [%] | IC50 [2] [nM] | IC50 [3] [nM]
1 | CC(=O)N[C@@H](CSC(=O)[C@]1([C@@H](O)C(C)C)NC(=O)[C@H](C)[C@@H]1O)C(=O)O [LACTACYSTIN] | < 50 | 3480 | –
2 | C=CC[C@@H]1/C=C(\C)C[C@H](C)C[C@H](OC)[C@H]2O[C@@](O)(C(=O)C(=O)N3CCCC[C@H]3C(=O)O[C@H](/C(C)=C/[C@@H]3CC[C@@H](O)[C@H](OC)C3)[C@H](C)[C@@H](O)CC1=O)[C@H](C)C[C@@H]2OC [TACROLIMUS ANHYDROUS] | – | 13.8 | –
3 | CC(/C=C/C(=O)NO)=C\[C@@H](C)C(=O)c1ccc(N(C)C)cc1 [TRICHOSTATIN] | – | – | 611
